The source of these data is US5459160A, “Iridoid derivatives and the use thereof as a drug” (Tsumura & Co., priority 1990, dated 1995).

A short description of series [1]: Acute toxicity test. The following applies: mouse, in vivo, ip; male S.P.P. mice, abdominally administered; Table 11. The procedure: The acute toxicity test was carried out by abdominally administering each test drug to male S.P.P. mice and determining an LD50 value.
The subject of series [2] is bile secretion. The experiment in a line: Cholagogic action, bile secretion (Experimental Example 5). The format is in vivo, male Wistar rats. The following applies: intraduodenal. The procedure: After male Wistar rats 7 weeks old were fasted for 24 hours, they were anesthetized by the interperitoneal administration of 1.25 g/kg (volume 2 m.iota./kg) of urethane. A polyethylene canula (SP-10, a product of Natsume Seisakusho) was inserted into a bile duct and after the bile was caused to flow out for 30 minutes, the bile was collected in the cource of 1 hour. Thereafter, each test drug was suspended or dissolved in a 1% aqueous Tween-80 solution, and was administered into the duodenum at a rate of 5 m.iota./kg. Furthermore, the bile was collected every hour in the course of five hours, and its weight was measured. Only a 1% Tween-80 solution was given as a control.
The results are tabulated in Tables 6, 7, 8, 9 and 10, wherein the bile secretion amount every hour was represented by a percentage with the bile secretion amount (mg) one hour before the dose of the test drug being 100.

The subject of series [3] is hyperlipemia. The experiment in a line: Anti-hyperlipemia test in rats on high fat food (Experimental Example 1). Type of series: in vivo, Male Wistar rats. The following applies: peroral once a day, two weeks, control 100, Table 1. An excerpt:
Male Wistar rats 6.5 weeks old were allowed to freely intake a high fat food (containing 1% of cholesterol, 0.5% of sodium cholate, 12% of beef tallow and 20% of standard chow) in the cource of two weeks, to thus cause an outbreak of hyperlipemia. The dose of the drug was started simultaneously with the application of the high fat food, and was perorally given once a day through a stomach tube until the end of the experiment. The drugs were all suspended in a cane sugar fatty acid ester and were administered. The oily compounds were adjusted in advance to 100 mg/m.iota. by diethyl ether. A suitable amount was collected at the time of the dose and after diethyl ether was evaporated and removed, it was suspended in a cane sugar fatty acid ester (1% ryoto sugar ester) and then given. After the final dose of the drug, the rats were fasted for about 18 hours, and the blood was sampled to measure the blood serum lipid. The blood serum lipid was measured by using a TBA-380 biochemical analyzer (a product of Toshiba Medical Co.,) unless a particular hindrance occurred.

The mark [4] stands for this setting: 0-1 hour after dose, control 81.1, Table 9.
Where [5] appears, read: 1-2 hour after dose, control 66.6, Table 9.
The mark [6] stands for this setting: 2-3 hour after dose, control 55.8, Table 9.
[7] abbreviates: 3-4 hour after dose, control 49.0, Table 9.
Where [8] appears, read: 4-5 hour after dose, control 42.8, Table 9.

`COC(=O)C1=CO[C@@H](OC2CCCCO2)[C@@H]2C(CO)=CC[C@H]12` (single isomer, unassigned) [Definite Example 16]: in series [1], the LD50 is 412 mg/kg.

In the case of `COC(=O)C1=COC(O)[C@H]2[C@@H]1CC1OC12C` (stereo partly drawn) [Definite Example 35, methyl (4aS, 7aS)-6,7-epoxy-1,4a,5,6,7,7a-hexahydro-1-hydroxy-7-methylcyclopenta[c]pyran-4-carboxylate], the “Bile secretion amount, percentage of the hour before dose” value (shortened to “Bile secretion amount, percentage”) is on record as 110.4% in series [2] (0-1 hour after dose, control 87.7, Table 7); 85.2% in series [2] (1-2 hour after dose, control 75.3, Table 7); 71.4% in series [2] (2-3 hour after dose, control 65.0, Table 7); 61.1% in series [2] (3-4 hour after dose, control 58.7, Table 7); 53.5% in series [2] (4-5 hour after dose, control 51.8, Table 7).

As to `OCC1=CC[C@@H]2C(CO)=CO[C@@H](OC3CCCCO3)[C@H]12` (stereo partly drawn) [Definite Example 18, (1S, 4aS, 7aS)-4,7-bis(hydroxymethyl)-1,4a, 5,7a-tetrahydro-1-(2-tetrahydropyranyloxy)cyclopenta[c]pyran], the “Bile secretion amount, percentage” value turned out to be 91.3% in series [2] (setting [4]); 74.6% in series [2] (setting [5]); 60.3% in series [2] (setting [6]); 51.1% in series [2] (setting [7]); 44.1% in series [2] (setting [8]). In series [1], this molecule displayed an LD50 of 559 mg/kg.

In the case of `COC(=O)C1=COC(=O)[C@H]2[C@@H]1CC[C@@H]2C` [Definite Example 5, methyl (4aS, 7S, 7aR)-1,4a, 5,6,7,7a-hexahydro-7-methyl-1-oxocyclopenta[c]pyran-4-carboxylate], the “Bile secretion amount, percentage” value is given as 105.0% in series [2] (setting [4]); 78.0% in series [2] (setting [5]); 62.0% in series [2] (setting [6]); 52.6% in series [2] (setting [7]); 45.1% in series [2] (setting [8]).

For `COC(=O)C1=CO[C@@H](O[C@@H]2O[C@H](COC(C)=O)[C@@H](OC(C)=O)[C@H](OC(C)=O)[C@H]2OC(C)=O)[C@@H]2C(C)=CC[C@H]12` [Definite Example 7, methyl (1S, 4aS, 7aS)-1-(2,3,4,6-tetra-O-acetyl-β-D-glucopyranosyloxy)-1,4a, 5,7a-tetrahydro-7-methylcyclopenta[c]pyran-4-carboxylate], in series [3] (10 mg/kg), the “Blood serum cholesterol (%)” value amounted to 94.4% and the “Blood serum triglyceride (%)” value came to 96.9%. In addition, in series [3] (30 mg/kg), the “Blood serum cholesterol (%)” value came out at 105% and the “Blood serum triglyceride (%)” value is given as 64.6%. In series [1], this molecule displayed an LD50 of 382 mg/kg.

In series [1], `COC(=O)C1=COC(=O)[C@@H]2C(CO[Si](C)(C)C(C)(C)C)=CC[C@H]12` [Definite Example 19] registered a 50% lethal dose (LD50) of 355 mg/kg.

For the molecule `COC(=O)C1=COC2OCC3CCC1C32` [Definite Example 12, methyl (iS, 4aS, 7R, 7aS)-1,7-(epoxymethano)-1,4a, 5,6,7,7a-hexahydrocyclopenta[c]pyran-4-carboxylate], in series [1], the LD50 was 527 mg/kg.

Turning to `COC(=O)C1=COC(=O)[C@@H]2C(CO[Si](c3ccccc3)(c3ccccc3)C(C)(C)C)=CC[C@H]12` [Definite Example 28, methyl (4aS, 7aS)-7-[(tert-butyldiphenylsilyloxy)methyl]-1,4a, 5,7a-tetrahydro-1-oxocyclopenta[c]pyran-4-carboxylate], the 50% lethal dose (LD50) in series [1] worked out at 406 mg/kg.

As to `CC(C)(C)[Si](C)(C)OCC1=CC[C@@H]2C(CO)=CO[C@@H](O[Si](C)(C)C(C)(C)C)[C@H]12` [Definite Example 34, (1S, 4aS, 7aS)-1-(tert-butyldimethylsilyloxy)-7-[(tert-butyldimethylsilyloxy)methyl]-1,4a, 5,7a-tetrahydro-4-(hydroxymethyl)cyclopenta[c]pyran], the LD50 in series [1] turned out to be 511 mg/kg.

Consider `COC(=O)C1=COC(=O)[C@@H]2C(CO)=CC[C@H]12` [Definite Example 20, methyl (4aS, 7aS)-1,4a, 5,7a-tetrahydro-7-(hydroxymethyl)-1-oxocyclopenta[c]pyran-4-carboxylate], for which the “Bile secretion amount, percentage” value came to 82.6% in series [2] (setting [4]); 66.8% in series [2] (setting [5]); 55.1% in series [2] (setting [6]); 48.6% in series [2] (setting [7]); 42.8% in series [2] (setting [8]).

Turning to `COC(=O)C1=COC(O)[C@@H]2[C@@H](CO)CC[C@H]12` (stereo partly drawn) [Definite Example 6, methyl (4aS, 7S, 7aS)-1,4a, 5,6,7,7a-hexahydro-1-hydroxy-7-(hydroxymethyl)cyclopenta[c]pyran-4-carboxylate], the “Blood serum cholesterol (%)” value is on record as 79.6% in series [3] (10 mg/kg) and 85.4% in series [3] (30 mg/kg). For the same molecule, the “Blood serum triglyceride (%)” value in series [3] (10 mg/kg) is on record as 86.7%; in series [3] (30 mg/kg) it was 80.4%. Moreover, the “Bile secretion amount, percentage” value in series [2] (0-1 hour after dose, control 84.1, Table 8) is recorded as 111.4%; in series [2] (1-2 hour after dose, control 72.5, Table 8) it was 78.0%; in series [2] (2-3 hour after dose, control 63.8, Table 8), 66.7%; in series [2] (3-4 hour after dose, control 56.7, Table 8) it was 55.2%; in series [2] (4-5 hour after dose, control 51.2, Table 8) it was 50.3%. In addition, the LD50 in series [1] is 406 mg/kg.

Regarding `OCC1=CC[C@@H]2C(CO)=CO[C@@H](OC3CCCCO3)[C@H]12` (stereo partly drawn) [Definite Example 17, (1S, 4aS, 7aS)-4,7-bis (hydroxymethyl)-1,4a, 5,7a-tetrahydro-1-(2-tetrahydropyranyloxy)cyclopenta[c]pyran], the “Bile secretion amount, percentage” value in series [2] (0-1 hour after dose, control 82.9, Table 10) stood at 115.7%; in series [2] (1-2 hour after dose, control 74.1, Table 10) it was 77.3%; in series [2] (2-3 hour after dose, control 66.1, Table 10), 62.9%; in series [2] (3-4 hour after dose, control 59.8, Table 10) it was 54.0%; in series [2] (4-5 hour after dose, control 53.3, Table 10), 47.2%.

Regarding `COC(=O)C1=CO[C@@H](O[C@@H]2O[C@H](CO)[C@@H](O)[C@H](O)[C@H]2O)[C@@H]2C(C)=CC[C@H]12` [Definite Example 8, methyl (1S, 4aS, 7aS)-1-(β-D-glucopyranosyloxy)-1,4a, 5,7a-tetrahydro-7-methylcyclopenta[c]pyran-4-carboxylate], the “Blood serum cholesterol (%)” value in series [3] (10 mg/kg) was determined as 94.4%; in series [3] (30 mg/kg), 54.8%. Besides, the “Blood serum triglyceride (%)” value in series [3] (10 mg/kg) is 82.5%; in series [3] (30 mg/kg) it was 68.7%. Besides, the “Bile secretion amount, percentage” value is given as 85.0% in series [2] (setting [4]); 71.7% in series [2] (setting [5]); 60.1% in series [2] (setting [6]); 50.6% in series [2] (setting [7]); 44.4% in series [2] (setting [8]).

The term LD50 denotes the dose expected to kill half of the subjects tested.
